{"source": "patent US20250144131A1", "about": "“POLYSACCHARIDE COMPOUND WITH A DEFINED MOLECULAR STRUCTURE FOR THE TREATMENT OF PULMONARY FIBROSIS” (SHENZHEN YANDAI INVESTMENT CO., LTD, priority 2023, published 2025)", "key": {"[1]": {"system": "CD4+ and CD8+ lymphocyte subtypes", "test": "Blood CD3+/CD4+ and CD3+/CD8+ ratios by flow cytometry in orthotopic H22-bearing mice", "format": "in vivo, C57 mice", "settings": "cisplatin 4 mg/kg, Kanglaite soft capsule 1404 mg/kg", "protocol": "CD4^+ and CD8^+ content measurement: After the last dose, lymphocyte subtypes CD3^+/CD4^+ and CD3^+/CD8^+ in the blood were measured using flow cytometry."}, "[2]": {"test": "Mortality, survival time and body weight of H22-bearing mice", "format": "in vivo, C57 mice", "protocol": "A homogenate suspension of H22 hepatoma solid tumors was injected subcutaneously under the axilla of 60 healthy male C57 mice to create a solid tumor model. Once all mouse tumors averaged a volume of about 180 mm^3, mice were randomized into groups based on tumor volume and were administered the respective drugs or drug solvents via oral gavage or intraperitoneal injection for 27 consecutive days. Longest and shortest diameters of tumors were measured every three days to calculate tumor volume, and mouse weights were recorded every three days. At the end of the experiment, tumors, spleens, and thymuses were harvested and weighed to calculate tumor, spleen, and thymus indices."}, "[3]": {"system": "bone marrow cells", "parameters": "species or system C57 mice", "settings": "mouse, in vivo, 130 mg/kg", "protocol": "(§1) LLC cells in logarithmic growth phase at 1×10^7/mL were inoculated at 0.2 mL into the right axilla of 10 purchased normal male C57 mice. Tumor growth was monitored, and tumor-bearing mice were prepared. Once the tumor volume in tumor-bearing mice exceeded 200 mm^3, the tumor tissue was aseptically harvested to prepare a tissue cell suspension. This was mixed at a 1:1 (V:V) ratio with culture medium to create a tumor tissue homogenate. This homogenate was injected into the right axilla of 60 male C57 mice at 0.2 mL per mouse. When the tumor volume in these tumor-bearing mice exceeded 100 mm^3, mice with well-grown tumors without ulceration were selected and randomized into groups based on tumor volume as follows: model control group, cisplatin group (4 mg/kg), Kanglaite soft capsule group (1,404 mg/kg), cisplatin+Kanglaite soft capsule group (4+1,404 mg/kg), cisplatin+GLP-4 low-dose group (4+130 mg/kg), and cisplatin+GLP-4 high-dose group (4+1,170 mg/kg), with 8 mice per group. Additionally, 8 mice were selected as a normal control group. The cisplatin group received intraperitoneal injections of cisplatin, and the other groups were administered their respective drug solutions by gavage (20 mL/kg) or intraperitoneal injection (10 mL/kg), once daily for 27 consecutive days. After the last dose, blood was collected from the orbital plexus to test blood WBC, RBC, liver and kidney function indicators (ALT, AST, BUN, CRE), and CD3^+, CD4^+, and CD8^+ levels. Bone marrow smears were examined, and spleens, thymuses, and tumors were weighed. Histopathological examinations were conducted on the tumor, spleen, stomach, and kidneys."}, "[4]": {"test": "Mortality and body weight of orthotopic H22-bearing mice", "settings": "Kanglaite soft capsule 1404 mg/kg", "description": "(§2) Liver cancer (H22) cells, labeled with Luc fluorescent marker at a concentration of 1×10^7 cells/mL, were initially inoculated into the peritoneal cavity of 8 male C57 mice. After the development of ascites, the ascitic fluid was aseptically extracted, washed with HBSS buffer, centrifuged to discard the supernatant, and stained with Trypan Blue, and cells in the ascitic fluid were counted under a microscope. The cell concentration was adjusted to […] with HBSS buffer and inoculated into the right hepatic region of 51 male C57 mice, at a volume of 10 μL per mouse, to prepare the orthotopic tumor-bearing mice. One week later, the liver tumor formation in mice was detected using a small animal in vivo imaging system. Based on tumor size, the mice were randomized into groups: model control group, cisplatin group (4 mg/kg), Kanglaite soft capsule group (1,404 mg/kg), cisplatin+Kanglaite soft capsule group (4+1,404 mg/kg), cisplatin+GLP-4 low-dose group (4+130 mg/kg), and cisplatin+GLP-4 high-dose group (4+1,170 mg/kg), with 6 mice per group. An additional 6 mice served as the normal control group. The normal control group and the model control group were administered pure water by oral gavage. The chemotherapy group received intraperitoneal injections of cisplatin, and the other groups were administered their respective drug solutions by oral gavage (20 mL/kg) or intraperitoneal injection (10 mL/kg), once daily for 14 consecutive days. After the last dose, blood was collected from the orbital plexus to test blood WBC, RBC, liver and kidney function indicators (ALT, AST, BUN, CRE), and CD3^+/CD4^+, CD3^+/CD8^+ ratios. The spleen, thymus, and tumors were weighed to calculate organ coefficients.\nAnimal survival and general condition: Weight was recorded weekly, along with any deaths among the animals."}, "[5]": {"system": "CD4+ and CD8+ lymphocyte subtypes", "test": "Blood CD3+/CD4+ and CD3+/CD8+ by flow cytometry in LLC-bearing mice", "format": "in vivo, C57 mice", "settings": "blood after last dose, cisplatin 4, Kanglaite 1404, GLP-4 low-dose 130 mg/kg", "protocol": "as §1, with “After the last dose, blood was collected from the orbital plexus to test blood WBC, RBC, liver and kidney function indicators (ALT, AST, BUN, CRE), and CD3^+, CD4^+, and CD8^+ levels. Bone marrow smears were examined, and spleens, thymuses, and tumors were weighed. Histopathological examinations were conducted on the tumor, spleen, stomach, and kidneys.” left out"}, "[6]": {"system": "Liver cancer (H22) cells, orthotopic", "test": "Tumors in orthotopic H22-bearing mice by small animal in vivo imaging", "parameters": "species or system C57 mice", "settings": "for Tumor (in vivo imaging): Kanglaite soft capsule 1404 mg/kg", "description": "as §2\nTumor volume measurement: Tumor volume changes were measured weekly using small animal in vivo imaging technology."}, "[7]": {"system": "H22 cells", "test": "Necrosis and apoptosis of H22 cells (GLP-4 combined with cisplatin)", "format": "cell-based", "parameters": "unit not given here", "settings": "48 h, GLP-4 2 mg/mL, cisplatin 5 μg/mL", "protocol": "The culture medium was discarded, cells were washed with PBS and digested with 0.125% trypsin. After digestion, the reaction was stopped with medium, and cells were transferred to EP tubes for counting using a cell counter. […] 24 h later, once cells adhered, drugs were added. 48 h after drug administration, cells were digested with trypsin, washed with PBS, and recounted. The corresponding volume of staining solution was added based on cell count, then incubated for 30 min in an incubator. After incubation, cells were chilled to stop staining and maintain viability, followed by imaging using a confocal microscope.\nBased on preliminary study results, the dosing concentration for Ganoderma lucidum polysaccharide GLP-4 was set at 2 mg/mL, and for cisplatin (DDP) at 5 μg/mL."}}, "note": "Marks after values point to notes of the source that are not given here."}
{"smiles": "N.N.[Cl][Pt][Cl]", "note": "[Cisplatin, cisplatin]", "values": [{"measurement": "CD3^+/CD4^+", "setting": "[1]", "value": "4.26 ± 0.04"}, {"measurement": "CD3^+/CD8^+", "setting": "[1]", "value": "4.21 ± 0.81"}, {"measurement": "Number of deaths", "setting": "[2]; 8 per group, cisplatin 3, GLP-4 low-dose 50 mg/kg", "value": 0}, {"measurement": "Survival time", "setting": "[2]; 27 days dosing, cisplatin 3, GLP-4 low-dose 50 mg/kg", "value": "27 ± 0", "unit": "days"}, {"measurement": "Weight", "setting": "[2]; D0, cisplatin 3, GLP-4 low-dose 50 mg/kg", "value": "22.8 ± 1^+ g"}, {"measurement": "Weight", "setting": "[2]; D9, cisplatin 3, GLP-4 low-dose 50 mg/kg", "value": "22.2 ± 0.7^+ g"}, {"measurement": "Weight", "setting": "[2]; D12, cisplatin 3, GLP-4 low-dose 50 mg/kg", "value": "21.9 ± 0.5^+ g"}, {"measurement": "Weight", "setting": "[2]; D15, cisplatin 3, GLP-4 low-dose 50 mg/kg", "value": "21.3 ± 1*^+ g"}, {"measurement": "Mortality rate", "setting": "[2]; cisplatin 3, GLP-4 low-dose 50 mg/kg", "value": 0, "unit": "%"}, {"measurement": "Lymphatic system", "setting": "[3]", "value": "15.75 ± 3.44"}, {"measurement": "Mononuclear cell system", "setting": "[3]", "value": "2.88 ± 0.55"}, {"measurement": "Myeloid/erythroid ratio", "setting": "[3]", "value": "3.68 ± 1.68"}, {"measurement": "Other cells", "setting": "[3]", "value": "2.50 ± 2.01"}, {"measurement": "Red cell system", "setting": "[3]", "value": "22.75 ± 5.67"}, {"measurement": "Number of deaths", "setting": "[4]; 6 per group, cisplatin 4 mg/kg", "value": 3}, {"measurement": "Number of surviving animals", "setting": "[4]; 6 per group, cisplatin 4 mg/kg", "value": 3}, {"measurement": "Weight", "setting": "[4]; W0, cisplatin 4 mg/kg", "value": "18.5 ± 1.3", "unit": "g"}, {"measurement": "Weight", "setting": "[4]; W1, cisplatin 4 mg/kg", "value": "16.9 ± 1.8 ^ g"}, {"measurement": "Weight", "setting": "[4]; W2, cisplatin 4 mg/kg", "value": "15.1 ± 1.6", "unit": "g"}, {"measurement": "Mortality rate", "setting": "[4]; cisplatin 4 mg/kg", "value": 50.0, "unit": "%"}, {"measurement": "CD3+/CD4+", "setting": "[5]", "value": "0.093 ± 0.025"}, {"measurement": "CD3+/CD8+", "setting": "[5]", "value": "1.571 ± 0.406"}, {"measurement": "Tumor (in vivo imaging)", "setting": "[6]; W0, cisplatin 4 mg/kg", "value": 3756000, "unit": "P/s/cm^2/sr"}, {"measurement": "Tumor (in vivo imaging)", "setting": "[6]; W1, cisplatin 4 mg/kg", "value": 12898500, "unit": "P/s/cm^2/sr"}, {"measurement": "Tumor (in vivo imaging)", "setting": "[6]; W2, cisplatin 4 mg/kg", "value": 11871333, "unit": "P/s/cm^2/sr"}, {"measurement": "Tumors compared to the model control group (in vivo imaging)", "setting": "[6]; cisplatin 4, Kanglaite 1404, GLP-4 low-dose 130 mg/kg", "value": "significantly decreased on W2"}, {"measurement": "Apoptosis rate, Mean ± SD", "setting": "[7]", "value": "10.9 ± 1.6"}, {"measurement": "Necrosis rate, Mean ± SD", "setting": "[7]", "value": "33.7 ± 8.2"}, {"measurement": "Total mortality rate, Mean ± SD", "setting": "[7]", "value": "44.7 ± 9.5"}, {"measurement": "Apoptosis rate", "setting": "[7]; single value 1", "value": 11.3}, {"measurement": "Necrosis rate", "setting": "[7]; single value 1", "value": 27.3}, {"measurement": "Total mortality rate", "setting": "[7]; single value 1", "value": 38.7}, {"measurement": "Apoptosis rate", "setting": "[7]; single value 2", "value": 8.8}, {"measurement": "Necrosis rate", "setting": "[7]; single value 2", "value": 28.6}, {"measurement": "Total mortality rate", "setting": "[7]; single value 2", "value": 37.3}, {"measurement": "Apoptosis rate", "setting": "[7]; single value 3", "value": 12.9}, {"measurement": "Necrosis rate", "setting": "[7]; single value 3", "value": 45.4}, {"measurement": "Total mortality rate", "setting": "[7]; single value 3", "value": 58.2}]}
